Where “and” joins values, the source holds several entries; their conditions need not be identical. Identical values can stand only once.
Experiments:
[1] = Relative chemical stability of cyclopropenes measured by 1H-NMR; assay type: physicochemical; conditions: for Stability (relative chemical stability, based on cyclopropenes having a chain length of 1): 1H-NMR, CDCl3, stored at −20° C. or room temperature, relative to chain length 1
Excerpt: A variety of analysis methods can be used to analyze the derivatives of Formula 6, since the absorbance of cyclopropenes containing an aryl group can be easily measured in the UV range. It can be confirmed that the chemical stability of the derivatives increases, when the length of chains to link an aryl ring to a cyclopropene ring is 2 or more. […] It is supposed that the stability of cyclopropenes increase due to the fact that π electrons of aryl groups affect π electrons of cyclopropenes.
The following Table 1 summarizes the relative chemical stability of cyclopropenes having a chain length of 2, 3, 4 or 5, based on the chemical stability of cyclopropenes having a chain length of 1. In the case of cyclopropene having a chain length of 1, the structure thereof can be confirmed via ^1H-NMR within one hour following synthesis (degraded to a level of 50% or more within one hour at 30° C.). In the case of cyclopropene having a chain length of zero, synthesis thereof was attempted in accordance with the present invention, but was impossible by a conventional method. Meanwhile, in the case of cyclopropenes having a chain length of 2 or more, the structure thereof can be precisely confirmed by ^1H-NMR as well as ^13C-NMR. The stability of these cyclopropenes was measured by ^1H-NMR while NMR cells (CDCl3) were stored at −20° C. or room temperature. In particular, cyclopropenes having chains of 3 or more were so stable that their half-life reached 5 days or longer at −20° C. or lower. In ^1H-NMR analysis, the stability was evaluated by comparing integral values at 4 to 6.5 ppm (1H) and 0.8 to 0.9 ppm (2H), characteristic peaks of 1-alkylcyclopropenes, using a small amount of 1,1,3,3-tetramethylurea (2.80 ppm) as an internal standard. Furthermore, the stability was also qualitatively evaluated by comparing integral value of the peak newly generated adjacent to the peak of the olefin proton of cyclopropene ring, as a 1-alkylcyclopropene compound is decomposed.

tomato [2] = assay: Experimental Example 2: Efficacy test on tomato using oil based formulation (reddening grade); assay type: in vivo; design: key: an area in which the surface of tomato was colored in pink was 10% or less; an area in which the surface of tomato was completely colored in red was 10 to 40%; 2: an area in which the surface of tomato was completely colored in red was 40 to 70%; 3: an area in which the surface of tomato was completely colored in red was 70% or more and the bottom area remained green; 4: an area in which the surface of tomato was most colored in red and only a part of (0 to 10%) the bottom area remained green; 5: the surface of tomato did not entirely color in green; conditions: 1.0 mM oil-based formulation, individual tomatoes n=4
Excerpt: (§1) At this time, the tops of tomatoes most early turned red, while the bottoms thereof most lately turned red. For this reason, in order to accurately evaluate the difference in reddening, the coloring evaluated was based on the area of red color, rather than the color of tomatoes. […] Accordingly, the grade level is proportional to the rate at which the tomatoes ripened.
As illustrated in Example 1, in situ, in accordance with the methods of Preparation Examples 15, 16, 17, 18 and 22, five agents (1.0 mmol) such as 1-(2-phenylethyl)cyclopropene, 1-(3-phenylpropyl)cyclopropene, 1-(4-phenylbutyl)cyclopropene, 1-(5-phenylpentyl)cyclopropene and 1-hexylcyclopropene were prepared, 5.0 ml of xylene and 5.0 ml of water were added to the reaction solution, vigorously stirred for 5 minutes and stood. When the mixture was separated into an organic layer (upper layer) and an aqueous layer (lower layer), only the organic layer was collected and the aqueous layer was discarded. […] of hexane was added to the organic layer and homogeneously mixed to prepare a 1.0 mM oil-based formulation.
The tomatoes were screened in the same manner as in Experimental Example 1 and divided into 7 groups (n=4) including a non-treated group, a control group (solvent-treated group) and 5 agent groups. Tomatoes were treated with the previously prepared agent using a household sprayer such that the surface thereof was saturated. The tomatoes were stood at room temperature (25-30° C.) for 3 days and a reddening level thereof was evaluated based on grades of 0 to 5.

tomato [3] = assay: Experimental Example 1: Efficacy test on tomato using emulsion (reddening grade); assay type: in vivo; design: key: an area in which the surface of tomato was colored in pink was 10% or less; an area in which the surface of tomato was completely colored in red was 10 to 40%; 2: an area in which the surface of tomato was completely colored in red was 40 to 70%; 3: an area in which the surface of tomato was completely colored in red was 70% or more and the bottom area remained green; 4: an area in which the surface of tomato was most colored in red and only a part of (0 to 10%) the bottom area remained green; 5: the surface of tomato did not entirely color in green; conditions: individual tomatoes n=4
Procedure: In situ, a 1.0 mM 1-octylcyclopropene formulation was prepared using (trans)-1-octyl-1-(methanesulfonyloxy)-2-(trimethylsilyl)cyclopropane of Preparation Example 10 in the same manner as in Example 7. This solution was diluted to 1 to 100 times prior to use, as necessary. Experimental Example 1: Efficacy test on tomato using emulsion 1.0 mM formulations of five agents such as 1-(2-phenylethyl)cyclopropene, 1-(3-phenylpropyl)cyclopropene, 1-(4-phenylbutyl)cyclopropene, 1-(5-phenylpentyl)cyclopropene and 1-hexylcyclopropene were prepared in the same manner as in Example 1, and 1.0 mM and 100 μM solutions were prepared therefrom. Then, the effects of the solutions were compared with non-treated groups and control groups in which a surfactant or a stabilizing agent (sodium dodecylbenzenesulfonate or tristyrenylphenykethoxy)12ethanol) is dissolved.
Tomatoes whose top end began to turn pink were screened, harvested and divided into 12 groups (n=4) in total, i.e., non-treated groups, control groups (surfactant) and agent groups with different concentrations such as 100 μM and 1.0 mM. Tomatoes were treated with the prepared agent formulation using a household sprayer such that the surface thereof was saturated. The tomatoes were stood at room temperature (25-30° C.) for 3 days and a reddening level thereof was evaluated based on grades of 0 to 5.
as §1

Row | chemical stability (in words) [1] | Stability (relative chemical stability, based on cyclopropenes having a chain length of 1) [1] | SMILES | Tomato results: reddening level (grade 0 to 5) (tomato [2]; Day 0, room temperature (25-30° C.)) | Tomato results: reddening level (grade 0 to 5) (tomato [2]; Day 1, room temperature (25-30° C.)) | Tomato results: reddening level (grade 0 to 5) (tomato [2]; Day 2, room temperature (25-30° C.)) | Tomato results: reddening level (grade 0 to 5) (tomato [2]; Day 3, room temperature (25-30° C.)) | reddening level (grade 0 to 5) (tomato [3]; 100 μM, Day 0, room temperature (25-30° C.)) | reddening level (grade 0 to 5) (tomato [3]; 100 μM, Day 1, room temperature (25-30° C.)) | reddening level (grade 0 to 5) (tomato [3]; 100 μM, Day 2, room temperature (25-30° C.)) | reddening level (grade 0 to 5) (tomato [3]; 100 μM, Day 3, room temperature (25-30° C.)) | reddening level (grade 0 to 5) (tomato [3]; 1.0 mM, Day 0, room temperature (25-30° C.)) | reddening level (grade 0 to 5) (tomato [3]; 1.0 mM, Day 1, room temperature (25-30° C.)) | reddening level (grade 0 to 5) (tomato [3]; 1.0 mM, Day 2, room temperature (25-30° C.)) | reddening level (grade 0 to 5) (tomato [3]; 1.0 mM, Day 3, room temperature (25-30° C.))
1 | considerably unstable | 1 | C1=C(Cc2ccccc2)C1 [1-benzylcyclopropene] |  |  |  |  |  |  |  |  |  |  |  | 
2 |  | ~1 | COc1ccc(CC2=CC2)cc1 [A=—, Z=4-OCH, 1-(4-methoxybenzyl)cyclopropene] |  |  |  |  |  |  |  |  |  |  |  | 
3 |  |  | CCCCCCC1=CC1 [(Hexyl), 1-hexylcyclopropene, reference compound] | 0 (an area in which the surface of tomato was colored in pink was 10% or less) (2×) and 1 (an area in which the surface of tomato was completely colored in red was 10 to 40%) and 2 (an area in which the surface of tomato was completely colored in red was 40 to 70%) | 1 (an area in which the surface of tomato was completely colored in red was 10 to 40%) (2×) and 2 (an area in which the surface of tomato was completely colored in red was 40 to 70%) and 3 (an area in which the surface of tomato was completely colored in red was 70% or more and the bottom area remained green) | 3 (an area in which the surface of tomato was completely colored in red was 70% or more and the bottom area remained green) and 2 (an area in which the surface of tomato was completely colored in red was 40 to 70%) and 4 and 5 | 4 (2×) and 5 (2×) | 0 (an area in which the surface of tomato was colored in pink was 10% or less) (2×) and 1 (an area in which the surface of tomato was completely colored in red was 10 to 40%) and 2 (an area in which the surface of tomato was completely colored in red was 40 to 70%) | 1 (an area in which the surface of tomato was completely colored in red was 10 to 40%) (2×) and 3 (an area in which the surface of tomato was completely colored in red was 70% or more and the bottom area remained green) and 4 | 3 (an area in which the surface of tomato was completely colored in red was 70% or more and the bottom area remained green) (2×) and 4 and 5 | 4 and 5 (3×) | 0 (an area in which the surface of tomato was colored in pink was 10% or less) (2×) and 1 (an area in which the surface of tomato was completely colored in red was 10 to 40%) and 2 (an area in which the surface of tomato was completely colored in red was 40 to 70%) | 1 (an area in which the surface of tomato was completely colored in red was 10 to 40%) (2×) and 2 (an area in which the surface of tomato was completely colored in red was 40 to 70%) and 3 (an area in which the surface of tomato was completely colored in red was 70% or more and the bottom area remained green) | 2 (an area in which the surface of tomato was completely colored in red was 40 to 70%) (2×) and 3 (an area in which the surface of tomato was completely colored in red was 70% or more and the bottom area remained green) and 4 | 3 (an area in which the surface of tomato was completely colored in red was 70% or more and the bottom area remained green) (2×) and 5 (2×)

— patent US9072293B2, “Cyclopropenes and method for applying cyclopropenes to agricultural products or crops” (Erum Biotechnologies Inc., priority 2010, dated 2015)
